pIC50: −log10 of the molar value.
Target: T1, human full-length MKNK1 (Homo sapiens, UniProt Q9BUB5, T385D)
T1 construct: purchased Carna Biosciences 02-145; host or cells: insect cells (baculovirus expression system)
Assay: MKNK1 kinase high ATP assay (TR-FRET)
Assay type: biochemical
Settings: high ATP (2 mM final), 15 min preincubation with enzyme, GST-MKNK1 (T344D)
Method: MKNK1-inhibitory activity at high ATP of compounds of the present invention after their preincubation with MKNK1 was quantified employing the TR-FRET-based MKNK1 high ATP assay as described in the following paragraphs.
A recombinant fusion protein of Glutathione-S-Transferase (GST, N-terminally) and human full-length MKNK1 (amino acids 1-424 and T344D of accession number BAA 19885.1), expressed in insect cells using baculovirus expression system and purified via glutathione sepharose affinity chromatography, was purchased from Carna Biosciences (product no 02-145) and used as enzyme. As substrate for the kinase reaction the biotinylated peptide biotin-Ahx-IKKRKLTRRKSLKG (C-terminus in amide form) was used, which can be purchased e.g. from the company Biosyntan (Berlin-Buch, Germany).
For the assay 50 nL of a 100 fold concentrated solution of the test compound in DMSO was pipetted into a black low volume 384 well microtiter plate (Greiner Bio-One, Frickenhausen, Germany), 2 μL of a solution of MKNK1 in aqueous assay buffer [50 mM HEPES pH 7.5, 5 mM MgCl2, 1.0 mM dithiothreitol, 0.005% (v/v) Nonidet-P40 (Sigma)] was added and the mixture was incubated for 15 min at 22° C. to allow pre-binding of the test compounds to the enzyme before the start of the kinase reaction. Then the kinase reaction was started by the addition of 3 μL of a solution of adenosine-tri-phosphate (ATP, 3.3 mM=> final conc. in the 5 μL assay volume is 2 mM) and substrate (0.1 μM=> final conc. in the 5 μL assay volume is 0.06 μM) in assay buffer and the resulting mixture was incubated for a reaction time of 30 min at 22° C. The concentration of MKNK1 was adjusted depending of the activity of the enzyme lot and was chosen appropriate to have the assay in the linear range, typical concentrations were in the range of 0.003 μg/mL. The reaction was stopped by the addition of 5 μL of a solution of TR-FRET detection reagents (5 nM streptavidine-XL665 [Cisbio Bioassays, Codolet, France] and 1 nM anti-ribosomal protein S6 (pSer236)-antibody from Invitrogen [#44921G] and 1 nM LANCE EU-W1024 labeled ProteinG [Perkin-Elmer, product no. AD0071]) in an aqueous EDTA-solution (100 mM EDTA, 0.1% (w/v) bovine serum albumin in 50 mM HEPES pH 7.5).
The resulting mixture was incubated for 1 h at 22° C. to allow the formation of complex between the phosphorylated biotinylated peptide and the detection reagents. Subsequently the amount of phosphorylated substrate was evaluated by measurement of the resonance energy transfer from the Eu-chelate to the streptavidine-XL. Therefore, the fluorescence emissions at 620 nm and 665 nm after excitation at 350 nm were measured in a TR-FRET reader, e.g. a Rubystar (BMG Labtechnologies, Offenburg, Germany) or a Viewlux (Perkin-Elmer). The ratio of the emissions at 665 nm and at […] was taken as the measure for the amount of phosphorylated substrate. The data were normalised (enzyme reaction without inhibitor=0% inhibition, all other assay components but no enzyme=100% inhibition).

T1 sequence (Q9BUB5 1-424 isoform Q9BUB5-2 T344D): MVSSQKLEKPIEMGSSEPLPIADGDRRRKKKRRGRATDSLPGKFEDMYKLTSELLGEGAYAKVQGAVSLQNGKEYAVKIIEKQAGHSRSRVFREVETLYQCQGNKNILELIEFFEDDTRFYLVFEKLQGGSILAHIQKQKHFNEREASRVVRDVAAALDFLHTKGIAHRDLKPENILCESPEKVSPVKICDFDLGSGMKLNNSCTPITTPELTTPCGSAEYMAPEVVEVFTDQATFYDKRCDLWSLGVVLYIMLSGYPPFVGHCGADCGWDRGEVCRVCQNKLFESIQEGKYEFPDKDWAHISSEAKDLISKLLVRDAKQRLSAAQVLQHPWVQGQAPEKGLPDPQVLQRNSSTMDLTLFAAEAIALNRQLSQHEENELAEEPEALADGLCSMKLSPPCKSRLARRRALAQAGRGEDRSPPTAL

SMILES | pIC50
O=C(c1cc2c(Nc3cc4cn[nH]c4cn3)ncnc2[nH]1)N1CCOCC1 [Example 21, Morpholin-4-yl[4-(1H-pyrazolo[3,4-c]pyridin-5-ylamino)-7H-pyrrolo[2,3-d]pyrimidin-6-yl]methanone] | 8.38
CN(C)CCNC(=O)c1cc2c(Nc3cc4cn[nH]c4cn3)ncnc2[nH]1 [Example 22, N-[2-(Dimethylamino)ethyl]-4-(1H-pyrazolo[3,4-c]pyridin-5-ylamino)-7H-pyrrolo[2,3-d]pyrimidine-6-carboxamide] | 8.27
COc1nc2[nH]ncc2cc1Nc1ncnc2sc3c(c12)CC[C@H](C(=O)N1CCOCC1)C3 [Example 34] | 8.60
COc1nc2[nH]ncc2cc1Nc1ncnc2sc3c(c12)CC[C@H](C(=O)N1CCC1)C3 [Example 35, Azetidin-1-yl{(7S)-4-[(6-methoxy-1H-pyrazolo[3,4-b]pyridin-5-yl)amino]-5,6,7,8-tetrahydro[1]benzothieno[2,3-d]pyrimidin-7-yl}methanone] | 8.66
COc1nc2[nH]ncc2cc1Nc1ncnc2sc3c(c12)CC[C@H](C(=O)N1C[C@@H](C)O[C@@H](C)C1)C3 [Example 36, [(2R,6S)-2,6-Dimethylmorpholin-4-yl]{(7S)-4-[(6-methoxy-1H-pyrazolo[3,4-b]pyridin-5-yl)amino]-5,6,7,8-tetrahydro[1]benzothieno[2,3-d]pyrimidin-7-yl}methanone] | 9.10
COc1nc2[nH]ncc2cc1Nc1ncnc2sc3c(c12)CC[C@H](C(=O)N(C)C(C)C)C3 [Example 37, (7S)-4-[(6-Methoxy-1H-pyrazolo[3,4-b]pyridin-5-yl)amino]-N-methyl-N-(propan-2-yl)-5,6,7,8-tetrahydro[1]benzothieno[2,3-d]pyrimidine-7-carboxamide] | 8.38
CCCN(C)C(=O)[C@H]1CCc2c(sc3ncnc(Nc4cc5cn[nH]c5nc4OC)c23)C1 [Example 38, (7S)-4-[(6-Methoxy-1H-pyrazolo[3,4-b]pyridin-5-yl)amino]-N-methyl-N-propyl-5,6,7,8-tetrahydro[1]benzothieno[2,3-d]pyrimidine-7-carboxamide] | 8.85
CCN(C)C(=O)[C@H]1CCc2c(sc3ncnc(Nc4cc5cn[nH]c5nc4OC)c23)C1 [Example 39, (7S)—N-Ethyl-4-[(6-methoxy-1H-pyrazolo[3,4-b]pyridin-5-yl)amino]-N-methyl-5,6,7,8-tetrahydro[1]benzothieno[2,3-d]pyrimidine-7-carboxamide] | 9.00
COc1nc2[nH]ncc2cc1Nc1ncnc2sc3c(c12)CC[C@H](C(=O)N1C[C@@H]2C[C@H]1CO2)C3 [Example 40] | 8.60
COc1nc2[nH]ncc2cc1Nc1ncnc2sc3c(c12)CC[C@H](C(=O)N1C[C@H]2C[C@@H]1CO2)C3 [Example 41] | 8.80
COc1nc2[nH]ncc2cc1Nc1ncnc2sc3c(c12)CC[C@H](C(=O)N1CCN(C)CC1)C3 [Example 42] | 8.68
COc1nc2[nH]ncc2cc1Nc1ncnc2sc3c(c12)CC[C@H](C(=O)N1CCC(N(C)C)CC1)C3 [Example 43, [4-(Dimethylamino)piperidin-1-yl]{(7S)-4-[(6-methoxy-1H-pyrazolo[3,4-b]pyridin-5-yl)amino]-5,6,7,8-tetrahydro[1]benzothieno[2,3-d]pyrimidin-7-yl}methanone] | 8.80
COc1nc2[nH]ncc2cc1Nc1ncnc2sc3c(c12)CC[C@H](C(=O)N1CCOC[C@H]1C)C3 [Example 44] | 9.05
COc1nc2[nH]ncc2cc1Nc1ncnc2sc3c(c12)CC[C@H](C(=O)N1CCOC[C@@H]1C)C3 [Example 45] | 9.15
CCN(C(=O)[C@H]1CCc2c(sc3ncnc(Nc4cc5cn[nH]c5cn4)c23)C1)C(C)C [Example 46, (7S)—N-Ethyl-N-(propan-2-yl)-4-(1H-pyrazolo[3,4-c]pyridin-5-ylamino)-5,6,7,8-tetrahydro[1]benzothieno[2,3-d]pyrimidine-7-carboxamide] | 8.31
CN(CC(C)(C)O)C(=O)[C@H]1CCc2c(sc3ncnc(Nc4cc5cn[nH]c5cn4)c23)C1 [Example 47, (7S)—N-(2-Hydroxy-2-methylpropyl)-N-methyl-4-(1H-pyrazolo[3,4-c]pyridin-5-ylamino)-5,6,7,8-tetrahydro[1]benzothieno[2,3-d]pyrimidine-7-carboxamide] | 7.95
CN(CCC(F)(F)F)C(=O)[C@H]1CCc2c(sc3ncnc(Nc4cc5cn[nH]c5cn4)c23)C1 [Example 48, (7S)—N-Methyl-4-(1H-pyrazolo[3,4-c]pyridin-5-ylamino)-N-(3,3,3-trifluoropropyl)-5,6,7,8-tetrahydro[1]benzothieno[2,3-d]pyrimidine-7-carboxamide] | 8.21
CCCN(CCOC)C(=O)[C@H]1CCc2c(sc3ncnc(Nc4cc5cn[nH]c5nc4OC)c23)C1 [Example 49, (7S)—N-(2-Methoxyethyl)-4-[(6-methoxy-1H-pyrazolo[3,4-b]pyridin-5-yl)amino]-N-propyl-5,6,7,8-tetrahydro[1]benzothieno[2,3-d]pyrimidine-7-carboxamide] | 9.52
CCCN(CCOC)C(=O)[C@H]1CCc2c(sc3ncnc(Nc4cc5cn[nH]c5nc4O)c23)C1 [Example 50, (7S)-4-[(6-Hydroxy-1H-pyrazolo[3,4-b]pyridin-5-yl)amino]-N-(2-methoxyethyl)-N-propyl-5,6,7,8-tetrahydro[1]benzothieno[2,3-d]pyrimidine-7-carboxamide] | 8.59
CCCCN(C)C(=O)[C@H]1CCc2c(sc3ncnc(Nc4cc5cn[nH]c5nc4OC)c23)C1 [Example 51, (7S)—N—Butyl-4-[(6-methoxy-1H-pyrazolo[3,4-b]pyridin-5-yl)amino]-N-methyl-5,6,7,8-tetrahydro[1]benzothieno[2,3-d]pyrimidine-7-carboxamide] | 9.30
CCCCN(C)C(=O)[C@H]1CCc2c(sc3ncnc(Nc4cc5cn[nH]c5nc4O)c23)C1 [Example 52, (7S)—N-Butyl-4-[(6-hydroxy-1H-pyrazolo[3,4-b]pyridin-5-yl)amino]-N-methyl-5,6,7,8-tetrahydro[1]benzothieno[2,3-d]pyrimidine-7-carboxamide] | 8.22
COc1nc2[nH]ncc2cc1Nc1ncnc2sc3c(c12)CC[C@H](C(=O)N(C)C)C3 [Example 53, (7S)-4-[(6-Methoxy-1H-pyrazolo[3,4-b]pyridin-5-yl)amino]-N,N-dimethyl-5,6,7,8-tetrahydro[1]benzothieno[2,3-d]pyrimidine-7-carboxamide] | 9.30
CN(C)C(=O)[C@H]1CCc2c(sc3ncnc(Nc4cc5cn[nH]c5nc4O)c23)C1 [Example 54, (7S)-4-[(6-Hydroxy-1H-pyrazolo[3,4-b]pyridin-5-yl)amino]-N,N-dimethyl-5,6,7,8-tetrahydro[1]benzothieno[2,3-d]pyrimidine-7-carboxamide] | 8.16
O=C([C@H]1CCc2c(sc3ncnc(Nc4cc5cn[nH]c5cn4)c23)C1)N1CCC1 [Example 55, Azetidin-1-yl[(7S)-4-(1H-pyrazolo[3,4-c]pyridin-5-ylamino)-5,6,7,8-tetrahydro[1]benzothieno[2,3-d]pyrimidin-7-yl]methanone] | 8.01
COCCN(CCOC)C(=O)[C@H]1CCc2c(sc3ncnc(Nc4cc5cn[nH]c5cn4)c23)C1 [Example 56, (7S)—N, N-Bis(2-methoxyethyl)-4-(1H-pyrazolo[3,4-c]pyridin-5-ylamino)-5,6,7,8-tetrahydro[1]benzothieno[2,3-d]pyrimidine-7-carboxamide] | 8.09
COCCN(C)C(=O)[C@H]1CCc2c(sc3ncnc(Nc4cc5cn[nH]c5cn4)c23)C1 [Example 57, (7S)—N-(2-Methoxyethyl)-N-methyl-4-(1H-pyrazolo[3,4-c]pyridin-5-ylamino)-5,6,7,8-tetrahydro[1]benzothieno[2,3-d]pyrimidine-7-carboxamide] | 7.82
CCN(C)C(=O)[C@H]1CCc2c(sc3ncnc(Nc4cc5cn[nH]c5cn4)c23)C1 [Example 58, (7S)—N-Ethyl-N-methyl-4-(1H-pyrazolo[3,4-c]pyridin-5-ylamino)-5,6,7,8-tetrahydro[1]benzothieno[2,3-d]pyrimidine-7-carboxamide] | 7.76

Source: patent US20160159789A1, “SUBSTITUTED PYRAZOLOPYRIDINES” (BAYER PHARMA AKTIENGESELLSCHAFT, priority 2013, published 2016)
